Assay results as given in patent US20220119354A1, “DIAMINO-SUBSTITUTED PYRIDINES AND PYRIMIDINES AS HERBICIDES” (FMC Corporation, priority 2019, published 2022).

Tests used:
Assay type in all cases: in vivo
[1] = test system: wheat (Triticum aestivum); assay: Test A postemergence, wheat; conditions: Triticum aestivum, post-emergence, 240 h, 0 to 100 scale, read-out: Plant response rating, Wheat
In short: (§1)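 Greenhouse pot test, loam/sand soil. Pre: directed soil spray at planting; post: foliar spray at 1–2 leaf stage (2–10 cm). Chemical in non-phytotoxic solvent + surfactant. Visual rating ~10 d, 0 = no effect, 100 = complete control.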

[2] = test system: kochia (Kochia scoparia); assay: Test A preemergence, kochia; conditions: 0 to 100 scale
In short: as §1

[3] = test system: ragweed (common ragweed, Ambrosia elatior); assay: Test A preemergence, ragweed; conditions: 0 to 100 scale
In short: as §1

[4] = test system: corn (Zea mays); assay: Test A postemergence, corn; conditions: Zea mays, post-emergence, 240 h, 0 to 100 scale
In short: as §1

[5] = test system: barnyardgrass (Echinochloa crus-galli); assay: Test B flooded paddy test, barnyardgrass; conditions: Echinochloa crus-galli, 360 h; Flood, 250 g ai/ha, applied to paddy water, 2-leaf stage, visual evaluation after 13 to 15 d; read-out: Plant response rating, Barnyardgrass (0 to 100 scale, 0 is no effect, 100 is complete control)
In short: (§2)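 Rating: 0 = no effect, 100 = complete control, visual, relative to untreated plants. Conditions: 2-leaf stage, 3 cm flood kept constant, compound put directly into water, 13–15 d greenhouse.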

[6] = test system: foxtail, giant (Setaria faberii); assay: Test A postemergence, giant foxtail; conditions: Setaria faberi, post-emergence, 240 h, 0 to 100 scale, read-out: Plant response rating, Foxtail, Giant
In short: as §1

[7] = test system: blackgrass (Alopecurus myosuroides); assay: Test A postemergence, blackgrass; conditions: Alopecurus myosuroides, post-emergence, 240 h, 0 to 100 scale, read-out: Plant response rating, Blackgrass
In short: as §1

[8] = test system: ryegrass, Italian (Lolium multiflorum); assay: Test A preemergence, Italian ryegrass; conditions: 0 to 100 scale
In short: as §1

[9] = test system: sedge, umbrella (small-flower umbrella sedge, Cyperus difformis); assay: Test B flooded paddy test, umbrella sedge; conditions: Cyperus difformis, 360 h; Flood, 250 g ai/ha, applied to paddy water, 2-leaf stage, visual evaluation after 13 to 15 d; read-out: Plant response rating, Sedge, Umbrella (0 to 100 scale, 0 is no effect, 100 is complete control)
In short: as §2

[10] = test system: galium (catchweed bedstraw, Galium aparine); assay: Test A postemergence, galium; conditions: Galium, post-emergence, 240 h, 0 to 100 scale, read-out: Plant response rating, Galium
In short: as §1

[11] = test system: pigweed (Amaranthus retroflexus); assay: Test A postemergence, pigweed; conditions: Amaranthus retroflexus, post-emergence, 240 h, 0 to 100 scale, read-out: Plant response rating, Pigweed
In short: as §1

[12] = test system: foxtail, giant (Setaria faberii); assay: Test A preemergence, giant foxtail; conditions: 0 to 100 scale
In short: as §1

[13] = test system: ragweed (common ragweed, Ambrosia elatior); assay: Test A postemergence, ragweed; conditions: Ambrosia artemisiifolia, post-emergence, 240 h, 0 to 100 scale, read-out: Plant response rating, Ragweed
In short: as §1

[14] = test system: barnyardgrass (Echinochloa crus-galli); assay: Test A preemergence, barnyardgrass; conditions: 0 to 100 scale
In short: as §1

[15] = test system: kochia (Kochia scoparia); assay: Test A postemergence, kochia; conditions: Bassia scoparia, post-emergence, 240 h, 0 to 100 scale, read-out: Plant response rating, Kochia
In short: as §1

[16] = test system: rice (Oryza sativa); assay: Test B flooded paddy test, rice; conditions: Oryza sativa, 360 h; Flood, 250 g ai/ha, applied to paddy water, 2-leaf stage, visual evaluation after 13 to 15 d; read-out: Plant response rating, Rice (0 to 100 scale, 0 is no effect, 100 is complete control)
In short: as §2

[17] = test system: barnyardgrass (Echinochloa crus-galli); assay: Test A postemergence, barnyardgrass; conditions: Echinochloa crus-galli, post-emergence, 240 h, 0 to 100 scale, read-out: Plant response rating, Barnyardgrass
In short: as §1

[18] = test system: ryegrass, Italian (Lolium multiflorum); assay: Test A postemergence, Italian ryegrass; conditions: Lolium multiflorum, post-emergence, 240 h, 0 to 100 scale, read-out: Plant response rating, Ryegrass, Italian
In short: as §1

[19] = test system: ducksalad (Heteranthera limosa); assay: Test B flooded paddy test, ducksalad; conditions: Heteranthera limosa, 360 h; Flood, 250 g ai/ha, applied to paddy water, 2-leaf stage, visual evaluation after 13 to 15 d; read-out: Plant response rating, Ducksalad (0 to 100 scale, 0 is no effect, 100 is complete control)
In short: as §2

[20] = test system: pigweed (Amaranthus retroflexus); assay: Test A preemergence, pigweed; conditions: 0 to 100 scale
In short: as §1

In the case of `C[C@@H](Nc1ncc(C(F)(F)F)c(N)n1)c1cc2ccccc2s1` [Compound 4, N2-[(1R)-1-benzo[b]thien-2-ylethyl]-5-(trifluoromethyl)-2,4-pyrimidinediamine], the plant injury at 125 g/ha ([1]; 125 g ai/ha) is reported as 0%, the plant injury at 500 g/ha ([1]; 500 g ai/ha) is reported as 0% and the “Plant response rating, Kochia” value ([2]; 125 g ai/ha) is reported as 100. For the same compound, the “Plant response rating, Kochia” value ([2]; 500 g ai/ha) was 100, the “Plant response rating, Ragweed” value ([3]; 125 g ai/ha) was 100 and the “Plant response rating, Ragweed” value ([3]; 500 g ai/ha) was 100. For the same compound, the Corn plant response rating (crop injury, 0 = no effect, 100 = complete kill) at 125 g/ha ([4]; 125 g ai/ha) was 0%, the Corn plant response rating (crop injury, 0 = no effect, 100 = complete kill) at 500 g/ha ([4]; 500 g ai/ha) was 30% and the pest or weed control at 250 g/ha [5] was 95%. For the same compound, the pest or weed control at 125 g/ha ([6]; 125 g ai/ha) was 30%, the pest or weed control at 500 g/ha ([6]; 500 g ai/ha) was 70% and the pest or weed control at 125 g/ha ([7]; 125 g ai/ha) was 0%. The pest or weed control at 500 g/ha ([7]; 500 g ai/ha) was 60%, the “Plant response rating, Ryegrass, Italian” value ([8]; 125 g ai/ha) was 80 and the “Plant response rating, Ryegrass, Italian” value ([8]; 500 g ai/ha) was 90. The pest or weed control at 250 g/ha [9] was 100%, the pest or weed control at 125 g/ha ([10]; 125 g ai/ha) was 80% and the pest or weed control at 500 g/ha ([10]; 500 g ai/ha) was 80%. For the same compound, the pest or weed control at 125 g/ha ([11]; 125 g ai/ha) was 100%, the pest or weed control at 500 g/ha ([11]; 500 g ai/ha) was 100% and the “Plant response rating, Foxtail, Giant” value ([12]; 125 g ai/ha) was 90. For the same compound, the “Plant response rating, Foxtail, Giant” value ([12]; 500 g ai/ha) was 100, the pest or weed control at 125 g/ha ([13]; 125 g ai/ha) was 80% and the pest or weed control at 500 g/ha ([13]; 500 g ai/ha) was 100%. For the same compound, the “Plant response rating, Barnyardgrass” value ([14]; 125 g ai/ha) was 90, the “Plant response rating, Barnyardgrass” value ([14]; 500 g ai/ha) was 100 and the pest or weed control at 125 g/ha ([15]; 125 g ai/ha) was 90%. The pest or weed control at 500 g/ha ([15]; 500 g ai/ha) was 100%, the plant injury at 250 g/ha [16] was 0% and the pest or weed control at 125 g/ha ([17]; 125 g ai/ha) was 20%. The pest or weed control at 500 g/ha ([17]; 500 g ai/ha) was 60%, the pest or weed control at 125 g/ha ([18]; 125 g ai/ha) was 0% and the pest or weed control at 500 g/ha ([18]; 500 g ai/ha) was 20%. For the same compound, the pest or weed control at 250 g/ha [19] was 45%, the “Plant response rating, Pigweed” value ([20]; 125 g ai/ha) was 100 and the “Plant response rating, Pigweed” value ([20]; 500 g ai/ha) was 100.
